PubChem BioAssay AID1117319 (Southern Research Institute, 2015)
pIC50: −log10 of the molar value. Results filed as inconclusive are left out.

Molecular target: Virion infectivity factor (Human immunodeficiency virus type 1 group M subtype B (isolate BH10)) + Virion infectivity factor (Human immunodeficiency virus type 1 group M subtype B (isolate BRU/LAI)) + Virion infectivity factor (Human immunodeficiency virus type 1 group M subtype B (isolate PCV12)) + Virion infectivity factor (Human immunodeficiency virus type 1 group M subtype B (isolate HXB2)) + DNA dC->dU-editing enzyme APOBEC-3G (Homo sapiens) (UniProt P69720+P69721+P69722+P69723+Q9HC16)
Test: HIV-1 Vif–A3G interaction blockers – biochemical, TR-FRET, GST-Vif 1-94, biotin-A3G peptide, dose response retest, primary screen (AID 1117319);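 further: Vif residues 1-94 fused to GST binding biotinylated APOBEC3G peptide 110-148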
Conditions: TR-FRET GST-Vif / biotin-A3G peptide binding

| Compound | pIC50 |
| --- | --- |
| O=[N+]([O-])c1ccc(N/N=C/c2ccc(O)c(O)c2O)c(S(=O)(=O)N2CCOCC2)c1 | 5.94 |
| COc1ccc(S(=O)(=O)N(C(C)=O)c2ccc3oc(=O)sc3c2)cc1 | 4.05 |
| O=C(CCS(=O)(=O)c1ccc(Br)cc1)NC1CCCC1 | 4.69 |
| Cc1ccc(OCCSc2nnc(-c3ccncc3)n2C)cc1 | 4.12 |
| CCc1nc2oc3cc(OC)ccc3c(=O)c2c(=O)n1Cc1ccco1 | 4.40 |
| FC(F)(F)c1cc(-c2ccco2)nc(NCc2ccco2)n1 | 5.37 |
| CCc1ccccc1N(CC(=O)NCCSCc1ccco1)S(C)(=O)=O | 4.11 |
| CC1(C)CC(=O)C2=C(C1)NCN(Cc1ccc3c(c1)OCO3)C2 | 4.04 |
| CCCC(=O)Nc1ccc(Br)cn1 | 4.19 |
| O=C(/C=C/c1ccc(O)c(O)c1)OC1C(O)CC(OC(=O)/C=C/c2ccc(O)c(O)c2)(C(=O)O)CC1O (stereo not drawn) | 4.79 |
| CCCCC(=O)NC(=S)Nc1cc(C(=O)O)ccc1Cl | 4.80 |
| Cc1cc(-c2csc(NC(=O)c3ccc(C#N)cc3)n2)c(C)n1Cc1ccco1 | 5.47 |
| Cc1cc(C)cc(Nc2ncc3c(n2)CC(c2ccco2)CC3=O)c1 (stereo not drawn) | 5.16 |
| O=C(Cn1cnc2c(nnn2Cc2ccc(F)cc2)c1=O)NCc1ccco1 | 4.02 |
| O=C(CCCN1C(=O)/C(=C\c2ccco2)SC1=S)Nc1ccc2ccccc2c1 | 5.14 |
| CNC[C@H](O)c1ccc(O)c(O)c1 | 5.94 |
| CCOc1cc(N2CCOCC2)c(OCC)cc1NC(=O)CSc1ncn[nH]1 | 4.93 |
| O=C1CCCC(O)=C1C=Nc1ccc(O)cc1 | 4.45 |
| CSc1nc(NCCOCCO)c2sc3nc(-c4ccco4)c4c(c3c2n1)CCC4 | 5.85 |
| Cc1cccc(NC(=S)NC(=O)/C=C/c2ccco2)c1 | 4.76 |
| COC1=C(N)C(=O)c2nc(-c3nc(C(=O)O)c(C)c(-c4ccc(OC)c(OC)c4O)c3N)ccc2C1=O | 4.97 |
| CCC(=O)NNc1ncnc2ccccc12 | 4.78 |
| COc1ccccc1NC(=O)COC(=O)c1cc2c(s1)CCC2 | 4.76 |

| Compound | pIC50 |
| --- | --- |
| NS(=O)(=O)c1ccc(N/N=C/c2ccc(O)c(O)c2O)c([N+](=O)[O-])c1 | 6.04 |
| COc1ccc2nc(-c3ccco3)c(-c3ccco3)nc2c1 | 6.46 |
| O=C(CCCN1C(=O)/C(=C\c2ccco2)SC1=S)Nc1cccc2ccccc12 | 5.59 |
| CCCSC1=N/C(=C\c2ccc([N+](=O)[O-])o2)C(=O)S1 | 4.89 |
| CCOC(=O)C1=C(c2ccccc2)N=c2s/c(=C\c3ccco3)c(=O)n2C1c1cccs1 (stereo not drawn) | 5.42 |
| CCCCn1c(N)c(N(CCOC)C(=O)c2cc(-c3ccco3)nc3ccccc23)c(=O)[nH]c1=O | 4.96 |
| Cc1cnnc2ccc3c(no[n+]3[O-])c12 | 5.33 |
| Cc1ccc(C2C(C#N)=C(N)Oc3c2oc(CO)cc3=O)o1 (stereo not drawn) | 5.69 |
| CC1CCC/C(=C\Nc2ccc(C(=O)O)c(O)c2)C1=O (stereo not drawn) | 4.77 |
| COCCn1nnnc1C(c1cc2cc(OC)c(OC)cc2[nH]c1=O)N1CCN(c2ccc(O)cc2)CC1 (stereo not drawn) | 5.32 |
| COc1cccc(CNCCc2c[nH]c3ccccc23)c1OCc1ccccc1 | 4.25 |
| Cc1cccc(C)c1NC(=O)CSc1nnc(-c2ccco2)c(-c2ccco2)n1 | 5.69 |
| CCN(CC)c1ccc(/C=N/n2c(C)cc(C)cc2=O)cc1 | 5.78 |
| O=C(Nc1cc(Cl)cc(Cl)c1)c1coc(=O)c(Br)c1 | 4.72 |
| COc1cc(-c2nnc(SCc3cc(=O)oc4cc(O)c(O)cc34)o2)cc(OC)c1OC | 5.08 |
| COc1ccc(S(=O)(=O)c2c(N)n(Cc3ccco3)c3nc4ccccc4nc23)cc1 | 5.46 |
| O=C(Nc1ccc(Br)cn1)c1coc(=O)c(Br)c1 | 4.89 |
| N#CC1=C(N)C2=C(N3CCCCC3)CCCC2C1(C#N)C#N (stereo not drawn) | 5.77 |
| CSc1nc(N2CCOCC2)c2c3c(sc2n1)CCC3 | 4.38 |
| COc1ccc(NC(=O)/C(C#N)=C/c2ccc(Br)o2)cc1 | 4.83 |
| O=C(/C=C/c1ccc(O)c(O)c1)c1ccc(S(=O)(=O)N2CCCCCC2)cc1 | 5.64 |
| O=C1NC(=O)N(c2cccc(Cl)c2)C(=O)/C1=C\c1ccc(Sc2nc3ccccc3[nH]2)o1 | 5.00 |
| O=C1C(Cl)=C(N2CCCCC2)C(=O)C(Cl)=C1c1cnc(N2CCCCC2)s1 | 5.38 |

| Compound | pIC50 |
| --- | --- |
| O=C(/C=C/c1cccs1)Nc1ccc(Br)cn1 | 4.99 |
| COC(=O)C1=C(N)OC2=C(C(=O)CCC2)C1c1cccs1 (stereo not drawn) | 4.35 |
| CCCCn1c(SCC(=O)NCc2ccco2)nc2ccc(N3CCOCC3)cc2c1=O | 4.90 |
| CC1(C)CC(Nc2ccc(Nc3ccccc3)cc2)CC(C)(C)N1 | 5.15 |
| CCOC(=O)C1=C(COC(=O)/C=C/c2ccco2)NC(=O)NC1C (stereo not drawn) | 4.96 |
| O=C(CN1CCN(S(=O)(=O)c2ccc(Cl)s2)CC1)NCc1ccc(Cl)cc1 | 5.12 |
| Cc1ccc(NC(=O)c2cc(-c3ccc(C)o3)nc3ccccc23)nc1 | 4.47 |
| CC(=O)Nc1ccc(NC(=O)CSCc2cnn(-c3ccccc3)c2-n2cccc2)cc1 | 4.59 |
| Cc1n[nH]c(=S)n(NC(=O)/C=C/C(=O)Nn2c(=S)[nH]nc(C)c2=O)c1=O | 5.62 |
| COc1ccc2c(c1)CC1(CN2C)C(=O)NC(=O)N(c2ccc(C)cc2)C1=O (stereo not drawn) | 4.23 |
| CC1CCCCC1NC(=O)COC(=O)c1c2c(nc3ccccc13)/C(=C/c1ccco1)CC2 (stereo not drawn) | 5.88 |
| O=C(O)c1ccc2c(c1)[C@@H]1C=CC[C@@H]1[C@H](c1ccccn1)N2 | 5.98 |
| Cc1cc(C)c(S(=O)(=O)N2CCCCC2)c(C)c1N(C)S(=O)(=O)c1ccc(Cl)cc1 | 4.88 |
| CNc1ccc(Br)cc(C(=O)/C=C/c2ccc(OC)cc2)c1=O | 5.45 |
| O=C1CC(/C=C/c2ccco2)=Nc2ccccc2N1 | 5.77 |
| CC(C)c1ccc(N2C(=O)NC(=O)/C(=C\C=C\c3ccco3)C2=O)cc1 | 5.03 |
| CC(C)c1ccc(S(=O)(=O)/N=C2/C=CC(=O)c3ccccc32)cc1 | 5.27 |
| O=C1C=CC(=O)c2c(O)c(CO)c(CO)c(O)c21 | 6.33 |
| COc1ccc(N2C3=C(CC4=C2CCCC4=O)C(=O)CCC3)cc1 | 4.58 |
| O=C(O)c1cccc(CSc2nnc(COc3ccccc3)o2)c1 | 4.05 |
| C/C(=N\O)C(=O)NCc1ccccn1 | 4.11 |
| O=C(NNC(=O)c1ccccc1O)c1cc2ccccc2o1 | 4.78 |
| O=S(=O)(c1ccc(NC(=S)N/N=C/c2ccc(O)c(O)c2)cc1)N1CCOCC1 | 5.12 |

| Compound | pIC50 |
| --- | --- |
| O=CN/C=C/c1cc(O)ccc1O | 5.76 |
| COc1cccc(-n2c(/C=C/c3ccc(O)c(O)c3)nc3ccccc3c2=O)c1 | 4.97 |
| CCOc1ccc(CNc2ccc(N3CCCC3)cc2)cc1 | 5.18 |
| Cn1cccc1/C=C1\C(=O)NC(=O)N(Cc2ccccc2)C1=O | 4.95 |
| O=C1/C(=C\c2ccco2)SC(=S)N1c1ccccc1 | 5.59 |
| O=C(CSc1ccccc1)N1CCN(c2ccccc2)CC1 | 4.17 |
| NS(=O)(=O)c1ccc(N=Nc2ccc(=O)[nH]c2O)cc1 | 5.28 |
| Cc1cc(NC(=O)CCNS(=O)(=O)c2cc(Br)cnc2N)ccc1Br | 4.45 |
| C=C(C)C(=O)Nc1ccc2c(c1)OCCOCCOCCO2 | 5.72 |
| O=[N+]([O-])c1ccc2c([N+](=O)[O-])ccc3c2c1CC3 | 4.91 |
| O=C(Nc1nc(-c2ccco2)c(-c2ccco2)s1)c1ccc(F)cc1F | 4.07 |
| Cc1cc(C(F)(F)F)n2nc(C(=O)O)c(Cl)c2n1 | 4.10 |
| CCC(c1nnnn1C(C)(C)CC)N(CCCO)Cc1cc2cc(C)cc(C)c2[nH]c1=O (stereo not drawn) | 6.31 |
| CCN1C(=O)/C(=C\c2ccco2)C(C(=O)OC)=C1C | 4.64 |
| O=C1C=Cc2ccccc2C1=O | 4.97 |
| c1cncc(-c2nnc3sc(-c4ccco4)nn23)c1 | 4.55 |
| O=C1C(Cl)=C(Oc2ccccc2)C(=O)c2ccccc21 | 4.63 |
| CNc1ccccc(-c2ccc3cc4c(cc3n2)OCO4)c1=O | 4.78 |
| CN(C(=O)COC(=O)c1cc(-c2ccco2)nc2ccccc12)C1CCS(=O)(=O)C1 (stereo not drawn) | 5.84 |
| CCC1C/C(=C/c2ccco2)C(=O)/C(=C/c2ccco2)C1 (stereo not drawn) | 5.59 |
| COC(=O)c1ccccc1-c1c2ccc(=N)cc-2oc2cc(N)ccc12 | 4.87 |
| CC1OC(CC(=O)O)CC2=C1C(=O)c1c(O)cccc1C2=O (stereo not drawn) | 5.38 |
| COc1ccc2c3c(cccc13)N(C)N=C2C | 5.37 |

| Compound | pIC50 |
| --- | --- |
| O=C(N/N=C/C=C/c1ccco1)c1cccs1 | 5.15 |
| NC1=NC(=O)/C(=C\c2ccco2)S1 | 5.51 |
| C=C(C)C(=O)Nc1cccc(C2=NOC3(C2)C[C@@H](C(N)=O)N(C(=O)CCCCC)C3)c1 (stereo partly drawn) | 6.66 |
| Cc1cc(O)c(C(C)C)cc1N=Cc1ccc([N+](=O)[O-])cc1 | 4.72 |
| CCn1c(SCC(=O)Nc2cc(C)on2)nnc1-c1cccnc1 | 5.02 |
| COc1ccc2c(c1)c(=O)oc1cc(OCC(=O)N3CCC(C)CC3)ccc12 | 4.26 |
| Cn1cccc1/C=C1/C(=O)NC(=O)N(Cc2ccccc2)C1=O | 5.48 |
| O=C1CC(c2ccco2)CC(O)=C1C=Nc1cc(Cl)ccc1O (stereo not drawn) | 5.35 |
| Cc1ccc(/C=C/C(=O)Nc2ncc(C)s2)o1 | 5.15 |
| CCOc1cccc(=O)c2c(C)n(CC(=O)c3ccccc3)c(C)c12 | 5.08 |
| CN(C)C(CNC(=O)c1cccnc1Sc1ccccc1)c1ccco1 (stereo not drawn) | 4.19 |
| O=C1C2C3C=CC(C3)C2C(=O)N1CNc1ccc(O)cc1 (stereo not drawn) | 5.56 |
| O=C(NN1C(=O)/C(=C/C=C/c2ccco2)SC1=S)c1ccncc1 | 5.63 |
| N#C/C(=C/c1ccc(Br)o1)C(N)=S | 5.41 |
| O=c1ccc2c(-c3ccccc3S(=O)(=O)O)c3ccc(O)c(O)c3oc-2c1O | 6.47 |
| COc1ccccc1-n1cnc2cc(NCc3cccs3)ccc21 | 4.08 |
| Cc1ccc(CCC(=O)Nc2ccc(S(N)(=O)=O)cc2)o1 | 4.24 |
| CN1CCC(N(C)C(=O)COc2ccccc2-c2ccccc2)CC1 | 4.97 |
| CCC(C)[C@@H](C(=O)Nc1ccc2c(c1)OCO2)N1Cc2ccccc2C1=O (stereo partly drawn) | 4.01 |
| CC(=O)NC1=NC(=O)/C(=C/c2cc(C)n(-c3cccc(C(=O)O)c3)c2C)S1 | 5.14 |
| Cc1ccc(N(CC(=O)NCCSCc2ccco2)S(=O)(=O)c2ccc(F)cc2)cc1 | 4.96 |
